“Also recorded” adds a separate entry of the source.
Assays:
zebrafish = test system: zebrafish; design: method as in PMID 24498931; conditions: live zebrafish model; cited from earlier work
[1] = biological target: T1, Mushroom tyrosinase (mTyr) (Agaricus bisporus, UniProt C7FF04); experiment: Fluorescence quenching of mTyr; assay type: binding
T1 construct: purchased Sigma-Aldrich
Description: Fluorescence quenching can be classified into static quenching and dynamic quenching. Static quenching occurs when quenching agents bind to fluorescent substances, forming complexes that result in quenching. Dynamic quenching, on the other hand, primarily arises from thermal motion and molecular collisions. The plot of F0/F against the concentration of 6′-O-caffeoylarbutin yielded a straight line with a good linear relationship (R^2 = 0.9802). […] Typically, the threshold value for the maximum collisional quenching rate constant between small molecular quenchers and large biomolecules is 2.0 × 10^10 L·(mol·s)^−1. If the calculated quenching rate constant is below this threshold, it indicates a dynamic quenching mechanism. Conversely, if the quenching rate constant exceeds this threshold, the quenching process may involve static quenching.
In the static quenching process, the relationship between fluorescence intensity and quencher concentration can be described by Equation (1). lg[(F0 − F)/F] = lgKa + nlg[Q](1) where F0 and F represent relative fluorescence intensities of the solution without and with the quencher, respectively. Ka represents the apparent binding constant between the enzyme and the quencher, n represents the number of binding sites on each biomacromolecule for the quencher, and [Q] denotes the concentration of the quencher. In this study, a double-logarithmic linear regression analysis of lg[(F0 − F)/F] against lg[Q] was conducted to evaluate the interaction between 6′-O-caffeoylarbutin and mTyr. Figure S5C illustrates the resulting regression line, which provided a slope and intercept for the calculation of Ka and n. The obtained values were determined as (10.79 ± 0.82) × 10^4 L∙mol^−1 and 0.79 ± 0.06, respectively. These findings indicate the formation of a stable complex between 6′-O-caffeoylarbutin and mTyr, involving a single binding site.
The fluorescence quenching role of 6′-O-caffeoylarbutin on mTyr was investigated using a RF-6000 fluorescence spectrophotometer (Shimadzu, Kyoto, Japan) with a xenon flash lamp as a light source, according to the literature with minor alterations. The excitation wavelength was 280 nm, with a scanning wavelength ranging from 290 to 500 nm at 37 °C. The excitation and emission bandwidths were 2.5 nm and 5.0 nm, respectively. A 3 mL mixture containing 2.0 mL of 31.25 U·mL^−1 mTyr solution, 0.5 mL of 6′-O-caffeoylarbutin solution (with 3% dimethyl sulfoxide) at concentrations from 0 to 100 μM, and 0.5 mL of PBS was used to collect the fluorescence intensity curves. The PBS served as the corresponding blank to correct the fluorescence intensities. The fluorescence quenching mechanism between mTyr and 6′-O-caffeoylarbutin was described using the Stern-Volmer Equation (2). (2) F0/F=1+KSVQ=1+Kqτ0[Q] where KSV is the Stern-Volmer quenching constant, [Q] represents the concentration of 6′-O-caffeoylarbutin, Kq is bimolecular quenching rate constant, and τ0 denotes the average lifetime of the fluorescence molecules in the absence of 6′-O-caffeoylarbutin (value is 10^−8 s).

[2] = biological target: T1, Mushroom tyrosinase (mTyr); experiment: HPLC analysis of oxidation of L-DOPA catalyzed by mTyr; assay type: biochemical; conditions: 2 μg·mL^−1 inhibitor, 0.5 mM L-DOPA, 31.25 U·mL^−1 mTyr, 30 °C, 0-30 min
Procedure: The inhibitory effect of 6′-O-caffeoylarbutin on the oxidation of L-DOPA catalyzed by mTyr was studied using Agilent 1200 series HPLC analysis (Palo Alto, CA, USA), with minor modifications to the previous procedure. The experiment was conducted with 0.5 mM L-DOPA as a diphenolase substrate for 31.25 U·mL^−1 mTyr in the absence of an inhibitor. Subsequently, 2 μg·mL^−1 of 6′-O-caffeoylarbutin was added, and the reaction mixture was incubated for 0, 15, and 30 min at 30 °C. Samples (10 μL) were injected after filtration onto the HPLC system equipped with a Capcell pak C18 column (250 × 4.6 mm, 5 μm, Shiseido, Tokyo, Japan) operating at a flow rate of 1.0 mL·min^−1. The column temperature maintained at 30 °C and the detection wavelength was set at 280 nm. The mobile phase was consisted of water (A) and methanol (B), and a gradient elution employed with the following linear gradient for solvent B: 5% (0 min), 20% (10 min), 50% (20 min), 80% (25 min), and 100% (35 min).

[3] = biological target: T1, Mushroom tyrosinase (mTyr); experiment: mTyr inhibition kinetics (Lineweaver-Burk); assay type: biochemical
Procedure: The mTyr inhibition kinetics of 6′-O-caffeoylarbutin were studied using a method similar to the previously reported procedure for determining the inhibitory activity of 6′-O-caffeoylarbutin on mTyr.
I. Enzyme inhibition mechanism study. For the investigation of the enzyme inhibition mechanism, L-DOPA was used at a final concentration of 0.5 mmol·L^−1, and the mTyr was set at final concentrations of 8.1, 32.5, and 65.0 U·mL^−1. The rate of change of optical density (OD) at 490 nm was measured for various concentrations of 6′-O-caffeoylarbutin (ranging from 10 to 100 μM). A graph was plotted to depict the relationship between the rate of change of OD values and the mTyr concentration under the influence of different concentrations of 6′-O-caffeoylarbutin.
II. Enzyme inhibition type study. To determine the enzyme inhibition type, L-DOPA was used with final concentrations of 0.2, 0.5, 0.6, and 0.8 mmol·L^−1, while mTyr was used at a final concentration of 31.25 U·mL^−1. The rate of change of OD at 490 nm was measured for various concentrations of 6′-O-caffeoylarbutin (ranging from 0 to 100 μM). A reciprocal plot was generated using the rate of change of OD values and L-DOPA concentration. The inhibition constants were obtained based on the inhibition type of 6′-O-caffeoylarbutin on mTyr using quadratic plotting of the 6′-O-caffeoylarbutin concentration and the slope and vertical intercept of the line in the Lineweaver_Burk double reciprocal plot and Dixon plot.

T1 sequence (C7FF04 1-392): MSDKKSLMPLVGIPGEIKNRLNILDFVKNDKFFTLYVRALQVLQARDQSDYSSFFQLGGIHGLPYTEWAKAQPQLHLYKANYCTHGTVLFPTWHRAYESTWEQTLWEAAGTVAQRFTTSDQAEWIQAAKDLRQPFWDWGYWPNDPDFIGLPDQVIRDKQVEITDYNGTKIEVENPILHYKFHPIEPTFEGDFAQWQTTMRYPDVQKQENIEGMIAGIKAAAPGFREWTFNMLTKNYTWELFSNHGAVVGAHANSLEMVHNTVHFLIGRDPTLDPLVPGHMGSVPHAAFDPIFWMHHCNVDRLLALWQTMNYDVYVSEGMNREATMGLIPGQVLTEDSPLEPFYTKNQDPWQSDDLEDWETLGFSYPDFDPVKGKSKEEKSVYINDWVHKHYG

SMILES: O=C(C=Cc1ccc(O)c(O)c1)OCC1OC(Oc2ccc(O)cc2)C(O)C(O)C1O (centres unmarked) [6′-O-caffeoylarbutin]
- inhibitory effect on melanin production relative to beta-arbutin (zebrafish): approximately two-fold higher; also recorded: approximately twice as potent as that of beta-arbutin
- toxicity level relative to beta-arbutin (zebrafish): around half that of beta-arbutin
- reduction of the peak of the fluorescence emission spectrum of mTyr ([1]; 25 μM): 37.18%
- decrease in the fluorescence emission spectrum of mTyr ([1]; 100 μM): 12.57%
- quenching rate constant Kq ([1]; Stern-Volmer, 37 °C): 4.11e+12 L·mol/s
- apparent binding constant Ka ([1]; double-logarithmic regression): 108000 L/mol
- number of binding sites n ([1]; double-logarithmic regression): 0.79 ± 0.06
- oxidation products of L-DOPA (HPLC) [2]: significantly decrease
- inhibition type on mTyr ([3]; Lineweaver-Burk, substrate L-DOPA): competitive inhibition
- Ki ([3]; binding to free enzyme, substrate L-DOPA, read-out: inhibition constant (Ki) on mTyr): 1340 ± 920 nM
- reversibility of mTyr inhibition ([3]; rate vs enzyme concentration, 10-100 μM inhibitor, L-DOPA 0.5 mmol·L^−1): reversible

Source: PMC10816276 (International Journal of Molecular Sciences, 2024)
